From ChEMBL document CHEMBL3991601, “The target landscape of clinical kinase drugs” (Science, 2017)
Active and inactive are the calls of the source. Rule as the data show it, for most assays here: actives have a measured Kd and inactives only a lower limit.

These compounds were tested against Dual specificity mitogen-activated protein kinase kinase 2 (Homo sapiens, UniProt P36507).
Also: in the data inactive means no Kd found up to 30 µM.

Sequence of Dual specificity mitogen-activated protein kinase kinase 2 (P36507 whole entry): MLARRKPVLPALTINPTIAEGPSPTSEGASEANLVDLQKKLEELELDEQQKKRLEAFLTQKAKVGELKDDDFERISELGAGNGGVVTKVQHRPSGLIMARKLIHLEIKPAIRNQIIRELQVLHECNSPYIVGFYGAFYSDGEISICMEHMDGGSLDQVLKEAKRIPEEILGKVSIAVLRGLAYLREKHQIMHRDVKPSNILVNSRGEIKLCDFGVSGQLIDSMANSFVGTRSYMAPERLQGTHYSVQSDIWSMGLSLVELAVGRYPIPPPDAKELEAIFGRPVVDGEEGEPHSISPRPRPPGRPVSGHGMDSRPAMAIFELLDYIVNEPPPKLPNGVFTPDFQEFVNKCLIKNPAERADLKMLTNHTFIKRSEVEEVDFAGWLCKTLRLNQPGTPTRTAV

Compound	Kd
C[C@@H](c1ccc2nccn2c1)n1nnc2ncc(-c3cnn(C)c3)nc21 [SAVOLITINIB]	> 30 µM (inactive)
C[C@@H]1CN(Cc2ccc(F)cc2)[C@@H](C)CN1C(=O)c1cc2c(C(=O)C(=O)N(C)C)cn(C)c2cc1Cl [TALMAPIMOD]	> 30 µM (inactive)
CN1CCC(COc2cnc(-c3cccc(Cn4nc(-c5cccc(C#N)c5)ccc4=O)c3)nc2)CC1 [TEPOTINIB]	> 30 µM (inactive)
O=c1sn(-c2cccc3ccccc23)c(=O)n1Cc1ccccc1 [TIDEGLUSIB]	> 30 µM (inactive)
CC(C)Nc1cc(-c2c[nH]c(C(=O)N[C@H](CO)c3cccc(Cl)c3)c2)c(Cl)cn1 [ULIXERTINIB]	> 30 µM (inactive)
CCCS(=O)(=O)Nc1ccc(F)c(C(=O)c2c[nH]c3ncc(-c4ccc(Cl)cc4)cc23)c1F [VEMURAFENIB]	> 30 µM (inactive)
CC[C@@H]1C(=O)N(C)c2cnc(Nc3ccc(C(=O)N[C@H]4CC[C@H](N5CCN(CC6CC6)CC5)CC4)cc3OC)nc2N1C(C)C [VOLASERTIB]	> 30 µM (inactive)
CCn1c(=O)c(-c2cc[nH]n2)cc2c(C)nc(N)nc21 [VOXTALISIB]	> 30 µM (inactive)
O=C(Nc1ccc(-c2ccnc(Nc3ccc(N4CCOCC4)cc3)n2)cc1)C1CCCN1 (stereo not drawn) [XL-019]	> 30 µM (inactive)

These compounds were tested against T1, Mitogen-activated protein kinase 15 (Homo sapiens, UniProt Q8TD08).
T1 sequence (Q8TD08 whole entry): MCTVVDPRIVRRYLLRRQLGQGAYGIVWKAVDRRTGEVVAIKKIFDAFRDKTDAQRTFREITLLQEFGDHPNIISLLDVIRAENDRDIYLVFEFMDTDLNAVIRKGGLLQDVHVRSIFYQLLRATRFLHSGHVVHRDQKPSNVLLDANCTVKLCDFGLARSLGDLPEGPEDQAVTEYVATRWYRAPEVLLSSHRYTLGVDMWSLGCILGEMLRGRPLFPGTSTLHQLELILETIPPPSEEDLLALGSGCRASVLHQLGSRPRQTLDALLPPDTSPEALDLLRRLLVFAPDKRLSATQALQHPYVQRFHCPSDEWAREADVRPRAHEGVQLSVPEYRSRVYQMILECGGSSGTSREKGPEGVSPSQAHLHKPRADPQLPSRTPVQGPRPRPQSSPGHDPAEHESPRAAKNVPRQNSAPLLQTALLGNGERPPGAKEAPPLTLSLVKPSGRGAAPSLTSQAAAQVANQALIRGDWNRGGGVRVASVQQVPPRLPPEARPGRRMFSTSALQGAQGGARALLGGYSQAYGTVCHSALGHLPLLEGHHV

Compound	Kd
C[C@@H](c1ccc2nccn2c1)n1nnc2ncc(-c3cnn(C)c3)nc21 [SAVOLITINIB]	> 30 µM (inactive)
C[C@@H]1CN(Cc2ccc(F)cc2)[C@@H](C)CN1C(=O)c1cc2c(C(=O)C(=O)N(C)C)cn(C)c2cc1Cl [TALMAPIMOD]	> 30 µM (inactive)
CN1CCC(COc2cnc(-c3cccc(Cn4nc(-c5cccc(C#N)c5)ccc4=O)c3)nc2)CC1 [TEPOTINIB]	> 30 µM (inactive)
O=c1sn(-c2cccc3ccccc23)c(=O)n1Cc1ccccc1 [TIDEGLUSIB]	> 30 µM (inactive)
CC(C)Nc1cc(-c2c[nH]c(C(=O)N[C@H](CO)c3cccc(Cl)c3)c2)c(Cl)cn1 [ULIXERTINIB]	> 30 µM (inactive)
CCCS(=O)(=O)Nc1ccc(F)c(C(=O)c2c[nH]c3ncc(-c4ccc(Cl)cc4)cc23)c1F [VEMURAFENIB]	> 30 µM (inactive)
CC[C@@H]1C(=O)N(C)c2cnc(Nc3ccc(C(=O)N[C@H]4CC[C@H](N5CCN(CC6CC6)CC5)CC4)cc3OC)nc2N1C(C)C [VOLASERTIB]	> 30 µM (inactive)
CCn1c(=O)c(-c2cc[nH]n2)cc2c(C)nc(N)nc21 [VOXTALISIB]	> 30 µM (inactive)
O=C(Nc1ccc(-c2ccnc(Nc3ccc(N4CCOCC4)cc3)n2)cc1)C1CCCN1 (stereo not drawn) [XL-019]	> 30 µM (inactive)

Each compound was assayed against Serine/threonine-protein kinase pim-1 (Homo sapiens, UniProt P11309).
Sequence of Serine/threonine-protein kinase pim-1 (P11309 whole entry): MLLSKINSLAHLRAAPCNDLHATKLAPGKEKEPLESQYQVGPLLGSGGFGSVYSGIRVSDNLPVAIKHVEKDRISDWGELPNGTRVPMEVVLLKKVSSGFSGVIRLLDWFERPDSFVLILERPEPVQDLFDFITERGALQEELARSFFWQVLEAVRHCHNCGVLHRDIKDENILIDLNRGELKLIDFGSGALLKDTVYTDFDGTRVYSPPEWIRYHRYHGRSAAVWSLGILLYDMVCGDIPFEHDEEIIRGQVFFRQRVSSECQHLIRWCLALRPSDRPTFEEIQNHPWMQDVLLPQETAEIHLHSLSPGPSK

Compound	Kd
C[C@@H](c1ccc2nccn2c1)n1nnc2ncc(-c3cnn(C)c3)nc21 [SAVOLITINIB]	> 30 µM (inactive)
C[C@@H]1CN(Cc2ccc(F)cc2)[C@@H](C)CN1C(=O)c1cc2c(C(=O)C(=O)N(C)C)cn(C)c2cc1Cl [TALMAPIMOD]	> 30 µM (inactive)
CN1CCC(COc2cnc(-c3cccc(Cn4nc(-c5cccc(C#N)c5)ccc4=O)c3)nc2)CC1 [TEPOTINIB]	> 30 µM (inactive)
O=c1sn(-c2cccc3ccccc23)c(=O)n1Cc1ccccc1 [TIDEGLUSIB]	> 30 µM (inactive)
CC(C)Nc1cc(-c2c[nH]c(C(=O)N[C@H](CO)c3cccc(Cl)c3)c2)c(Cl)cn1 [ULIXERTINIB]	> 30 µM (inactive)
CCCS(=O)(=O)Nc1ccc(F)c(C(=O)c2c[nH]c3ncc(-c4ccc(Cl)cc4)cc23)c1F [VEMURAFENIB]	> 30 µM (inactive)
CC[C@@H]1C(=O)N(C)c2cnc(Nc3ccc(C(=O)N[C@H]4CC[C@H](N5CCN(CC6CC6)CC5)CC4)cc3OC)nc2N1C(C)C [VOLASERTIB]	> 30 µM (inactive)
CCn1c(=O)c(-c2cc[nH]n2)cc2c(C)nc(N)nc21 [VOXTALISIB]	> 30 µM (inactive)
O=C(Nc1ccc(-c2ccnc(Nc3ccc(N4CCOCC4)cc3)n2)cc1)C1CCCN1 (stereo not drawn) [XL-019]	> 30 µM (inactive)

These compounds were tested against T2, Breakpoint cluster region protein (Homo sapiens, UniProt P11274).
T2 sequence (P11274 whole entry): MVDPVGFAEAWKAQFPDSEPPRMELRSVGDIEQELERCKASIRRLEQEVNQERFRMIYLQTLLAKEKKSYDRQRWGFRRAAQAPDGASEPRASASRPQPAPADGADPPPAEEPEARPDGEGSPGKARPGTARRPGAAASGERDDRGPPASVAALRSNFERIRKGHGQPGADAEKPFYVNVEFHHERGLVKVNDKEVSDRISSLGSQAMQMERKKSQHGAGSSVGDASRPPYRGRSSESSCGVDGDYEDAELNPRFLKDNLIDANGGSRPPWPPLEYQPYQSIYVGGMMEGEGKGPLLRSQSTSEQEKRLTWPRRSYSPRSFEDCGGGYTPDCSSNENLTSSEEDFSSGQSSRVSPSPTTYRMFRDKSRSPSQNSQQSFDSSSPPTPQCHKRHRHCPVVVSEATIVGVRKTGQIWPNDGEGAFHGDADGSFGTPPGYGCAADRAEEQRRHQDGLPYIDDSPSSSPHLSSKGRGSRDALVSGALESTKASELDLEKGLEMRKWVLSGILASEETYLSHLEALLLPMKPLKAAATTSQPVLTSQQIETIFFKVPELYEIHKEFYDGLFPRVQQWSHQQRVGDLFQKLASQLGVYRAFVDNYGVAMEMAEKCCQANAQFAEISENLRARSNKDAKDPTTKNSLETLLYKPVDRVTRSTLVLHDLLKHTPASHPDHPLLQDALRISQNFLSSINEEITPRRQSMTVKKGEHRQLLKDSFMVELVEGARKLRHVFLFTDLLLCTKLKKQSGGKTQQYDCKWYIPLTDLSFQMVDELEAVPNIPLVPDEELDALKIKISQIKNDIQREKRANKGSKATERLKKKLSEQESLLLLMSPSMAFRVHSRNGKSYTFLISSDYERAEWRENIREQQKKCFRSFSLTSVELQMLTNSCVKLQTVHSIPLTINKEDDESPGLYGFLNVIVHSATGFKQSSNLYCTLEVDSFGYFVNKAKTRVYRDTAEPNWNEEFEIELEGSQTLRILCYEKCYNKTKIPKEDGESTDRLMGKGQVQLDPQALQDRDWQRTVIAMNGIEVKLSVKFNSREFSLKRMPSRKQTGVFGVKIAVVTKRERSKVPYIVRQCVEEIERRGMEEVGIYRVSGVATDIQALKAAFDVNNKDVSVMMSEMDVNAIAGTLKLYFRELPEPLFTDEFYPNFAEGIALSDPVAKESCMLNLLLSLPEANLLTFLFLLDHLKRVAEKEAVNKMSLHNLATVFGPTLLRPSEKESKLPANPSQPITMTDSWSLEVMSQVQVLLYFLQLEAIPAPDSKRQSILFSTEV

Compound	Kd
C[C@@H](c1ccc2nccn2c1)n1nnc2ncc(-c3cnn(C)c3)nc21 [SAVOLITINIB]	> 30 µM (inactive)
C[C@@H]1CN(Cc2ccc(F)cc2)[C@@H](C)CN1C(=O)c1cc2c(C(=O)C(=O)N(C)C)cn(C)c2cc1Cl [TALMAPIMOD]	> 30 µM (inactive)
CN1CCC(COc2cnc(-c3cccc(Cn4nc(-c5cccc(C#N)c5)ccc4=O)c3)nc2)CC1 [TEPOTINIB]	> 30 µM (inactive)
O=c1sn(-c2cccc3ccccc23)c(=O)n1Cc1ccccc1 [TIDEGLUSIB]	> 30 µM (inactive)
CC(C)Nc1cc(-c2c[nH]c(C(=O)N[C@H](CO)c3cccc(Cl)c3)c2)c(Cl)cn1 [ULIXERTINIB]	> 30 µM (inactive)
CCCS(=O)(=O)Nc1ccc(F)c(C(=O)c2c[nH]c3ncc(-c4ccc(Cl)cc4)cc23)c1F [VEMURAFENIB]	> 30 µM (inactive)
CC[C@@H]1C(=O)N(C)c2cnc(Nc3ccc(C(=O)N[C@H]4CC[C@H](N5CCN(CC6CC6)CC5)CC4)cc3OC)nc2N1C(C)C [VOLASERTIB]	> 30 µM (inactive)
CCn1c(=O)c(-c2cc[nH]n2)cc2c(C)nc(N)nc21 [VOXTALISIB]	> 30 µM (inactive)
O=C(Nc1ccc(-c2ccnc(Nc3ccc(N4CCOCC4)cc3)n2)cc1)C1CCCN1 (stereo not drawn) [XL-019]	> 30 µM (inactive)

What follows are compounds tested against 5'-AMP-activated protein kinase catalytic subunit alpha-1 (Homo sapiens, UniProt Q13131).
Sequence of 5'-AMP-activated protein kinase catalytic subunit alpha-1 (Q13131 whole entry): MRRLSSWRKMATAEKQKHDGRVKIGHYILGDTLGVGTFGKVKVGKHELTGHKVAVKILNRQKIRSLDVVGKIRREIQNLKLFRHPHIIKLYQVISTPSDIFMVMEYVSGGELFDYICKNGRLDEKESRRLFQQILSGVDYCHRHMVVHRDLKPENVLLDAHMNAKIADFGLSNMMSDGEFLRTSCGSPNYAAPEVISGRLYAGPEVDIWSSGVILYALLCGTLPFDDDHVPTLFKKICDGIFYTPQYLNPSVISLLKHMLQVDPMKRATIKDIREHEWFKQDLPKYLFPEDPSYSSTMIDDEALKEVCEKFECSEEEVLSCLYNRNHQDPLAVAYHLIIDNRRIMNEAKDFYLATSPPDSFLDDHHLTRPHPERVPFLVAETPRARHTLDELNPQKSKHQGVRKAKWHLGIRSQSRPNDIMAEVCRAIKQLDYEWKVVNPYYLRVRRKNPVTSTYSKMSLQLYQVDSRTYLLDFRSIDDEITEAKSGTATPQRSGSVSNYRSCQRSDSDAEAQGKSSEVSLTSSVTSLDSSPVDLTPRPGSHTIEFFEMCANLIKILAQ

Compound	Kd
C[C@@H](c1ccc2nccn2c1)n1nnc2ncc(-c3cnn(C)c3)nc21 [SAVOLITINIB]	> 30 µM (inactive)
C[C@@H]1CN(Cc2ccc(F)cc2)[C@@H](C)CN1C(=O)c1cc2c(C(=O)C(=O)N(C)C)cn(C)c2cc1Cl [TALMAPIMOD]	> 30 µM (inactive)
CN1CCC(COc2cnc(-c3cccc(Cn4nc(-c5cccc(C#N)c5)ccc4=O)c3)nc2)CC1 [TEPOTINIB]	> 30 µM (inactive)
O=c1sn(-c2cccc3ccccc23)c(=O)n1Cc1ccccc1 [TIDEGLUSIB]	> 30 µM (inactive)
CC(C)Nc1cc(-c2c[nH]c(C(=O)N[C@H](CO)c3cccc(Cl)c3)c2)c(Cl)cn1 [ULIXERTINIB]	> 30 µM (inactive)
CCCS(=O)(=O)Nc1ccc(F)c(C(=O)c2c[nH]c3ncc(-c4ccc(Cl)cc4)cc23)c1F [VEMURAFENIB]	> 30 µM (inactive)
CC[C@@H]1C(=O)N(C)c2cnc(Nc3ccc(C(=O)N[C@H]4CC[C@H](N5CCN(CC6CC6)CC5)CC4)cc3OC)nc2N1C(C)C [VOLASERTIB]	> 30 µM (inactive)
CCn1c(=O)c(-c2cc[nH]n2)cc2c(C)nc(N)nc21 [VOXTALISIB]	> 30 µM (inactive)
O=C(Nc1ccc(-c2ccnc(Nc3ccc(N4CCOCC4)cc3)n2)cc1)C1CCCN1 (stereo not drawn) [XL-019]	> 30 µM (inactive)

The compounds below were run against Protein-tyrosine kinase 2-beta (Homo sapiens, UniProt Q14289).
Sequence of Protein-tyrosine kinase 2-beta (Q14289 whole entry): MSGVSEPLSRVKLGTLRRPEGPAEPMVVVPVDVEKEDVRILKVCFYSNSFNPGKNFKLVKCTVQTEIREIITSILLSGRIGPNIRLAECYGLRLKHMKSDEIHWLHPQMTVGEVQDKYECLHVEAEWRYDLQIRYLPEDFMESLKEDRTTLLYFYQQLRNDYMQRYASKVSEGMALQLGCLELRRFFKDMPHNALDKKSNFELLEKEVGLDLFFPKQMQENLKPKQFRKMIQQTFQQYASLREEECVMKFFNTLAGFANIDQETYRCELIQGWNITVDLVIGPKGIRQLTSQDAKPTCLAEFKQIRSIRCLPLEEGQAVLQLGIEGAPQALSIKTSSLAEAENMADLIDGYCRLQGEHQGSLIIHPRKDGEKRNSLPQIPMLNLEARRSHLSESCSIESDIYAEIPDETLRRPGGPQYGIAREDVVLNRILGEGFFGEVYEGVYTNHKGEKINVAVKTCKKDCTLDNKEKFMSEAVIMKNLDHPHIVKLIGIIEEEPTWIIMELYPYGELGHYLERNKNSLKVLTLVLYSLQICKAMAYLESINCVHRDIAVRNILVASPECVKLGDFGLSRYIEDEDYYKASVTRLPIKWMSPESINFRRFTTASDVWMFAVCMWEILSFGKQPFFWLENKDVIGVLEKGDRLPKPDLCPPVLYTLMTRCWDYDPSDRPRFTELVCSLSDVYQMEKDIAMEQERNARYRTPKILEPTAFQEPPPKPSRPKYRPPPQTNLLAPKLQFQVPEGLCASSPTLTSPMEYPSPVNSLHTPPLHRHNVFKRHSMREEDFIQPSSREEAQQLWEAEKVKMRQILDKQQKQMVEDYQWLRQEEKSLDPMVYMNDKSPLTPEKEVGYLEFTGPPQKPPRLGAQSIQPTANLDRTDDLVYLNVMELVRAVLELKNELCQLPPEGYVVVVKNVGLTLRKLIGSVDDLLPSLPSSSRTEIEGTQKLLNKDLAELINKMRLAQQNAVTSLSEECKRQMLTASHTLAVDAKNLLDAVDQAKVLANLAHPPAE

Compound	Kd
C[C@@H](c1ccc2nccn2c1)n1nnc2ncc(-c3cnn(C)c3)nc21 [SAVOLITINIB]	> 30 µM (inactive)
C[C@@H]1CN(Cc2ccc(F)cc2)[C@@H](C)CN1C(=O)c1cc2c(C(=O)C(=O)N(C)C)cn(C)c2cc1Cl [TALMAPIMOD]	> 30 µM (inactive)
CN1CCC(COc2cnc(-c3cccc(Cn4nc(-c5cccc(C#N)c5)ccc4=O)c3)nc2)CC1 [TEPOTINIB]	> 30 µM (inactive)
O=c1sn(-c2cccc3ccccc23)c(=O)n1Cc1ccccc1 [TIDEGLUSIB]	> 30 µM (inactive)
CC(C)Nc1cc(-c2c[nH]c(C(=O)N[C@H](CO)c3cccc(Cl)c3)c2)c(Cl)cn1 [ULIXERTINIB]	> 30 µM (inactive)
CCCS(=O)(=O)Nc1ccc(F)c(C(=O)c2c[nH]c3ncc(-c4ccc(Cl)cc4)cc23)c1F [VEMURAFENIB]	> 30 µM (inactive)
CC[C@@H]1C(=O)N(C)c2cnc(Nc3ccc(C(=O)N[C@H]4CC[C@H](N5CCN(CC6CC6)CC5)CC4)cc3OC)nc2N1C(C)C [VOLASERTIB]	> 30 µM (inactive)
CCn1c(=O)c(-c2cc[nH]n2)cc2c(C)nc(N)nc21 [VOXTALISIB]	> 30 µM (inactive)
O=C(Nc1ccc(-c2ccnc(Nc3ccc(N4CCOCC4)cc3)n2)cc1)C1CCCN1 (stereo not drawn) [XL-019]	> 30 µM (inactive)

Each compound was assayed against Activated CDC42 kinase 1 (Homo sapiens, UniProt Q07912).
Sequence of Activated CDC42 kinase 1 (Q07912 whole entry): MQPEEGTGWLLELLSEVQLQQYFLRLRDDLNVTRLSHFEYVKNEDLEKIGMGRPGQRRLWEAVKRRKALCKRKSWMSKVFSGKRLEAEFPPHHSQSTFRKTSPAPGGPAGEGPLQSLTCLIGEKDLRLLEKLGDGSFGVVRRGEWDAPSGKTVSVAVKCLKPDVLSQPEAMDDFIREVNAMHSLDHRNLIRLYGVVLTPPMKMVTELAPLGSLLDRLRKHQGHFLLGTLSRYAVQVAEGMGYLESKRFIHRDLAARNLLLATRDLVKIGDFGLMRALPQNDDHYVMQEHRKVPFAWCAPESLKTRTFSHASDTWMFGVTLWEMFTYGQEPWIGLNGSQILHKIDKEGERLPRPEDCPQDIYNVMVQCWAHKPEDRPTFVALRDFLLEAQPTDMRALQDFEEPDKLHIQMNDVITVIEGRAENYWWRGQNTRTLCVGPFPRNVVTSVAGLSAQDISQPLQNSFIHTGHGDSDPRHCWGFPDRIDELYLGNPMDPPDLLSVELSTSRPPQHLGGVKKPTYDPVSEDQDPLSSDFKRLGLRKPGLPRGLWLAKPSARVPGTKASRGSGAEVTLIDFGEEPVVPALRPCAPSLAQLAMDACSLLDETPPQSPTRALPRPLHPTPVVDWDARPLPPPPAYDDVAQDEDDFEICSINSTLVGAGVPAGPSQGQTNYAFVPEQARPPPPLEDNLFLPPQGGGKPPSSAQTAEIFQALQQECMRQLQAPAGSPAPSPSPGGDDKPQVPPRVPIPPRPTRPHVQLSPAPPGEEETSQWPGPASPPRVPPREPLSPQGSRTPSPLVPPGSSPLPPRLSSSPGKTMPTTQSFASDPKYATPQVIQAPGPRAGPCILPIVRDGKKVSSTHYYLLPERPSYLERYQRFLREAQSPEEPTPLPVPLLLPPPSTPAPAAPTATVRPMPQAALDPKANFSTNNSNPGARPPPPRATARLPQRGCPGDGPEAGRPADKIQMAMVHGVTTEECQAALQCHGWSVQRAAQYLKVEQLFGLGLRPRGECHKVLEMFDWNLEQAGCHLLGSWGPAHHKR

Compound	Kd
C[C@@H](c1ccc2nccn2c1)n1nnc2ncc(-c3cnn(C)c3)nc21 [SAVOLITINIB]	> 30 µM (inactive)
C[C@@H]1CN(Cc2ccc(F)cc2)[C@@H](C)CN1C(=O)c1cc2c(C(=O)C(=O)N(C)C)cn(C)c2cc1Cl [TALMAPIMOD]	> 30 µM (inactive)
CN1CCC(COc2cnc(-c3cccc(Cn4nc(-c5cccc(C#N)c5)ccc4=O)c3)nc2)CC1 [TEPOTINIB]	> 30 µM (inactive)
O=c1sn(-c2cccc3ccccc23)c(=O)n1Cc1ccccc1 [TIDEGLUSIB]	> 30 µM (inactive)
CC(C)Nc1cc(-c2c[nH]c(C(=O)N[C@H](CO)c3cccc(Cl)c3)c2)c(Cl)cn1 [ULIXERTINIB]	> 30 µM (inactive)
CCCS(=O)(=O)Nc1ccc(F)c(C(=O)c2c[nH]c3ncc(-c4ccc(Cl)cc4)cc23)c1F [VEMURAFENIB]	> 30 µM (inactive)
CC[C@@H]1C(=O)N(C)c2cnc(Nc3ccc(C(=O)N[C@H]4CC[C@H](N5CCN(CC6CC6)CC5)CC4)cc3OC)nc2N1C(C)C [VOLASERTIB]	> 30 µM (inactive)
CCn1c(=O)c(-c2cc[nH]n2)cc2c(C)nc(N)nc21 [VOXTALISIB]	> 30 µM (inactive)
O=C(Nc1ccc(-c2ccnc(Nc3ccc(N4CCOCC4)cc3)n2)cc1)C1CCCN1 (stereo not drawn) [XL-019]	> 30 µM (inactive)
